Data as given in PMC7978378, “Discovery of novel dual adenosine A1/A2A receptor antagonists using deep learning, pharmacophore modeling and molecular docking” (PLoS Computational Biology, 2021).

Key:
[1] = set-up: method as in PMID 20973483; details: further studies; cited from earlier work
animal models of PD = system: animal models of PD; set-up: method as in PMID 20973483; details: oral administration; cited from earlier work
A1 receptor = details: cited from earlier work
A2A receptor = details: cited from earlier work
A1AR [2] = target: A1AR; set-up: method as in ChEMBL25 [53]; details: S1 Table training set; ref ChEMBL25 [53]; read-out: Ki (nM) A1; cited from earlier work
A2AAR [3] = target: A2AAR; set-up: method as in ChEMBL25 [53]; details: S1 Table training set; ref ChEMBL25 [53]; read-out: Ki (nM) A2A; cited from earlier work
A1AR [4] = target: T1, A1AR (Homo sapiens, UniProt P30542); assay: cAMP functional assay, CHO-A1 cells; format: cell-based; set-up: host or cells: CHO-A1 cells; details: antagonism of NECA effect on cAMP, 5.08 × 10^−3 to 100 μM, read-out: cAMP assays (pIC50) A1 (converted)
T1 sequence (P30542 1-326): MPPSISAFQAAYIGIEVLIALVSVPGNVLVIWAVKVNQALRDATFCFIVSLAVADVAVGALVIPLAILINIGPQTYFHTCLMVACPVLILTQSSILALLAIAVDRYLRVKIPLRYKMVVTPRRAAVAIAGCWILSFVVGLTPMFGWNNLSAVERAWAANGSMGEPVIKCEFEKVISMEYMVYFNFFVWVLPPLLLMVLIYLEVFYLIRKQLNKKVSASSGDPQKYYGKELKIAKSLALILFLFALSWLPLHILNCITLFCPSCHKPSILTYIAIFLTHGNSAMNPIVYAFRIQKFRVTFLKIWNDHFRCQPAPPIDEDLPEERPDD

A2AAR [5] = target: T2, A2AAR (Homo sapiens, UniProt P29274); assay: Radioligand binding assay ([3H]ZM241385); details: [3H]ZM241385 0.5 nM, 90 min at 27°C, Cheng-Prusoff; read-out: Binding affinities (pKi) A2A (converted)
T2 sequence (P29274 whole entry): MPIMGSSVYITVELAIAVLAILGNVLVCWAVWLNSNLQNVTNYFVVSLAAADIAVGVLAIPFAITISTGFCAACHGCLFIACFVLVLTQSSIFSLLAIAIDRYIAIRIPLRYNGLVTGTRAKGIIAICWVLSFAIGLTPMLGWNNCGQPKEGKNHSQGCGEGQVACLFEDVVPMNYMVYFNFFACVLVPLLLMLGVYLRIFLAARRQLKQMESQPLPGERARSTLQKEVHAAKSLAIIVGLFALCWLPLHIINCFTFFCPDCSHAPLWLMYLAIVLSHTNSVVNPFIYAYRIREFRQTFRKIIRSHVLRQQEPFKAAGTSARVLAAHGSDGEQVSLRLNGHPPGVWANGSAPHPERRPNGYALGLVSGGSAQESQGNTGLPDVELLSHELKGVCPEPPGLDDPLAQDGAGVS

A1AR [6] = target: T1, A1AR; assay: biochemical
A2AAR [7] = target: T2, A2AAR; assay: cAMP functional assay, HEK293-A2A cells; format: cell-based; set-up: host or cells: HEK293-A2A cells; details: antagonism of NECA effect on cAMP, 5.08 × 10^−3 to 100 μM, read-out: cAMP assays (pIC50) A2A (converted)
A1/A2A ARs [8] = assay: Radioligand binding assays, summarised over both receptors; set-up: species or system human; details: range over A1AR and A2AAR radioligand binding assays
A1/A2A ARs [9] = assay: cAMP functional assay, summarised over both receptors; details: range over A1AR and A2AAR cAMP assays
rodents = details: forced swim test and tail suspension test in rodents; cited from earlier work

Row | IC50 (A1AR [4]) [nM] | SMILES | Ki (A1AR [2]) [nM] | Ki (A2AAR [3]) [nM] | also measured
1 | – | Nc1nc(-c2ccccc2)c2c(n1)-c1cc(CN3CCCC3)ccc1C2=O [2-amino-4-phenyl-8-(pyrrolidin-1-ylmethyl)-5H-indeno[1,2-d]pyrimidin-5-one] | – | – | genotoxicity [1]: genotoxic; activity in animal models of PD (animal models of PD): excellent activity
2 | – | Cc1ccc(-c2cc(-c3cccc(C(=O)N4CCCCC4)c3)nc(N)n2)o1 [4-(5-methylfuran-2-yl)-6-[3-(piperidine-1-carbonyl)phenyl]pyrimidin-2-amine] | – | – | Ki (A1 receptor): 9.54 nM; Ki (A2A receptor): 6.34 nM
3 | – | N#Cc1c(N)nc(SCc2ncc[nH]2)c(C#N)c1-c1ccc(O)cc1 [CHEMBL122622] | 2.6 | 28 | –
4 | – | COc1ccc(NC(=O)Nc2nc3ccc(Cl)cc3c3nc(-c4ccco4)nn23)cc1 [CHEMBL144979] | 7.6 | 9.4 | –
5 | – | CCCCCc1nc(N)c2nc(-n3nccn3)n(C)c2n1 [CHEMBL196258] | 26.2 | – | –
6 | – | Nc1nc(C#C[C@@H](O)c2ccccc2)nc2c1ncn2[C@@H]1O[C@H](CO)[C@@H](O)[C@H]1O [CHEMBL262363] | 0.67 | 1.8 | –
7 | – | OC[C@H]1O[C@@H](n2cnc3c(NC4CCCC4)nc(Cl)nc32)[C@H](O)[C@@H]1O [CHEMBL284969] | – | 17 | –
8 | – | CC(=O)Nc1cc(-n2cccn2)nc(-c2ccco2)n1 [CHEMBL401321] | 9.45 | 0.6 | –
9 | – | Cc1ccc(-c2nc(N)nc3c2nnn3Cc2ccccc2F)o1 [CHEMBL461857] | 19 | 2.1 | –
10 | – | CC(=O)Nc1cc(-c2cccc(N3CCCC3)n2)nc(-n2nc(C)cc2C)n1 [CHEMBL485765] | 7.2 | 0.26 | –
11 | – | O=C(NC1CC1)[C@H]1S[C@@H](n2cnc3c(NCc4cccc(I)c4)ncnc32)[C@H](O)[C@@H]1O [CHEMBL596014] | – | 15.2 | –
12 | – | Nc1nc(-c2ccccc2)c2c(n1)-c1cc(N3CCOCC3)ccc1C2=O [CHEMBL1095822] | 32.4 | 2.9 | –
13 | – | CCn1c(/N=C/c2ccc(F)cc2)c(C#N)sc1=S [CHEMBL2419148] | – | 11 | –
14 | – | CN(C)CCOc1ccc(-c2nc3c([nH]2)c(=O)n(C)c(=O)n3C)cc1 [CHEMBL3121720] | 1.82 | 0.4 | –
15 | > 100000 | CCCCNC(=O)CCn1nc(-c2ccccc2)c2ccccc2c1=O [Compound C1] | – | – | –
16 | > 100000 | O=C(COc1ccccc1)Nc1c(C(=O)Nc2cccc(F)c2)oc2ccccc12 [Compound C2] | – | – | –
17 | > 100000 | O=C(CCCn1c2ccccc2c2cn[nH]c(=O)c21)NCc1cccs1 [Compound C3] | – | – | –
18 | 3090 | O=C(c1ccco1)n1nc(-c2ccco2)nc1NCc1ccccc1 [Compound C4] | – | – | Ki (A2AAR [5]): 19500 nM; Ki (A1AR [6]): 2090 nM; IC50 (A2AAR [7]): > 100000 nM
19 | 1910 | Cc1ccccc1-c1nc(N)n(C(=O)Cc2ccccc2)n1 [Compound C7] | – | – | Ki (A2AAR [5]): 5750 nM; Ki (A1AR [6]): 1050 nM; IC50 (A2AAR [7]): > 100000 nM
20 | 191 | Nc1nc(-c2ccccc2Cl)nn1C(=O)c1cccc(Cl)c1 [Compound C9] | – | – | Ki (A2AAR [5]): 69.2 nM; pKi for A1/A2A ARs (A1/A2A ARs [8]): 7.16–7.49; Ki (A1AR [6]): 32.4 nM; IC50 (A2AAR [7]): 490 nM; pIC50 towards A1/A2A ARs (A1/A2A ARs [9]): 6.31–6.78
21 | 347 | CCCNc1cc(C)nc2c(C)c(-c3ccc(C)cc3)nn12 [Compound C10] | – | – | Ki (A2AAR [5]): 8320 nM; Ki (A1AR [6]): 170 nM; IC50 (A2AAR [7]): 10000 nM
22 | > 100000 | Cn1c(=O)c2c(-c3cccc(Cl)c3)c(Nc3ccccc3)oc2n(C)c1=O [Compound C11] | – | – | –
23 | > 100000 | O=C(Cc1csc(NC(=O)c2ccc3c(c2)OCO3)n1)NCCCc1ccccc1 [Compound C13] | – | – | –
24 | > 100000 | Cc1cccc(NC(=O)Cc2csc(NC(=O)c3ccc4c(c3)OCO4)n2)c1 [Compound C14] | – | – | –
25 | 4470 | CC(=O)c1cccc(NC(=O)Nc2cc3c(cc2Oc2ccccc2)n(C)c(=O)n3C)c1 [Compound C15] | – | – | Ki (A2AAR [5]): > 100000 nM; Ki (A1AR [6]): 2880 nM; IC50 (A2AAR [7]): 7940 nM; pIC50 towards A1/A2A ARs (A1/A2A ARs [9]): 5.10–5.35
26 | > 100000 | CCCn1ccc2c(OCC(=O)Nc3ccc(OCC)cc3)cccc2c1=O [Compound C16] | – | – | –
27 | 631 | CCn1cnc2c(-c3ccccc3)cn(CC(=O)Nc3cccc(F)c3)c2c1=O [Compound C17] | – | – | Ki (A2AAR [5]): > 100000 nM; Ki (A1AR [6]): 525 nM; IC50 (A2AAR [7]): 63100 nM
28 | > 100000 | O=C(Cn1c(=O)n(-c2ccccc2)c2ncccc21)NCc1cccc(F)c1 [Compound C18] | – | – | –
29 | 52500 | Cc1ccc(-c2c(C(=O)NCc3ccncc3)nc3ccccn23)cc1 [Compound C19] | – | – | Ki (A2AAR [5]): 11700 nM; Ki (A1AR [6]): 10700 nM; IC50 (A2AAR [7]): > 100000 nM
30 | – | CCn1c(=O)c2c(nc(/C=C/c3ccc(OC)c(OC)c3)n2C)n(CC)c1=O [KW-6002] | – | – | antidepressant activity (rodents): antidepressant activity
